{"source": "patent US11806343B2", "about": "“Inhibitors of DUX4 induction for regulation of muscle function” (Sonic Master Limited, priority 2017, dated 2023)", "key": {"DUX4 [1]": {"test_system": "DUX4", "experiment": "DUX4 expression downregulation by kinase family inhibitors (Table 1)", "format": "cell-based", "settings": "at the lowest significant concentration; listed as DCC2036"}, "DUX4 [2]": {"test_system": "DUX4", "experiment": "FSHD primary patient biopsy myotube immunocytochemistry, DUX4 expression", "format": "cell-based, human", "protocol": "(§1) FIG. 10 provides the workflow for assays performed with patient biopsy-derived muscle. On Day 0, patient myoblasts are passaged in a 96-well dish in primary myoblast medium (Genea BioCells). On Day 2, the medium is changed to […].\n(§2) 17MB026 primary FSHD-affected patient myoblasts (obtained from the University of Rochester FSHD Biorepository) were thawed and cultured as described in Rickard et al., 2015 in primary myoblast medium. Cells (6000 per well) were seeded to a collagen-I coated 96-well plate in 100 μl primary myoblast medium. Medium was changed every other day until cells reached 80% confluence followed by a switch to 100 μL per well primary myotube medium. […] Cells were fixed and analyzed after 2.5 days of myotube formation by immunocytochemistry and high-content imaging for DUX4, H3.X/Y, Myosin Heavy Chain expression and nuclei number. Five or six replicate wells were averaged per condition, […]"}, "[3]": {"test_system": "17MB026 primary FSHD-affected patient myotubes", "experiment": "FSHD primary patient biopsy myotube immunocytochemistry, Myosin Heavy Chain and nuclei", "format": "cell-based, human", "settings": "17MB026 primary myotubes, 2 nM-5 μM, 2.5 days", "protocol": "as §1, §2"}, "[4]": {"test_system": "17MB026 primary FSHD-affected patient myotubes", "experiment": "Live cell imaging of % cell confluence through myotube formation", "format": "cell-based, human", "settings": "17MB026 primary myotubes, six concentrations, four days of myotube formation", "protocol": "17MB026 primary FSHD-affected patient myoblasts (obtained from the University of Rochester FSHD Biorepository) were thawed and cultured as described in Rickard et al., 2015 in primary myoblast medium. Cells (4000 per well) were seeded to a collagen-I coated 96-well plate in 100 μL primary myoblast medium. Medium was changed every other day until cells reached 80% confluence followed by a switch to 100 μL per well primary myotube medium. […] Cells were imaged in the phase contrast channel every six hours for four days and cell confluence in each image was quantified, Triplicate wells of each condition were averaged."}, "DUX4 target genes": {"test_system": "DUX4 target genes", "experiment": "Nanostring panel transcript analysis, DUX4 target genes", "format": "cell-based, human", "settings": "17MB026 primary myotubes, six-point dose curve 30 nM-3 μM, 3 days", "protocol": "(§3) 17MB026 primary FSHD-affected patient myoblasts (obtained from the University of Rochester FSHD Biorepository) were thawed and cultured as described in Rickard et al., 2015 in primary myoblast medium. Cells (4000 per well) were seeded to a collagen-I coated 96-well plate in 100 μL primary myoblast medium. Medium was changed every other day until cells reached 80% confluence followed by a switch to 100 μL per well primary myotube medium. […] Cells were lysed after 3 days of myotube formation using 10 μL of iScript Buffer (Biorad) per well. The resulting lysates were frozen at −30° C. After thaw, 5 μL of each lysate was combined with a custom-designed Nanostring transcript probe and capture codeset. Probes were hybridized to lysates and run cartridge was loaded and run per standard protocol. Normalization and background subtraction were performed using the nSolver 3.0 software using standard conditions DUX4 target gene and myotube marker gene expression values were normalized to a standard set of housekeeping genes. Duplicate wells of each condition were averaged."}, "myotube marker genes": {"test_system": "myotube marker genes", "experiment": "Nanostring panel transcript analysis, myogenic genes", "format": "cell-based, human", "settings": "17MB026 primary myotubes, 30 nM-3 μM, 3 days", "protocol": "as §3"}, "PRKDC [5]": {"test_system": "PRKDC", "experiment": "RT-PCR of PRKDC mRNA in patient biopsy-derived primary myotubes", "format": "cell-based, human", "settings": "10 nM-1 μM, 2.5 days, vs vehicle", "protocol": "(§4) Patient biopsy-derived primary myoblasts were seeded to a collagen-I coated plate in primary myoblast medium. Medium was changed every other day until cells reached 80% confluence followed by a switch to primary myotube medium. […] After 2.5 days of myotube formation, the cells were lysed with buffer RLT followed by RNA isolation with RNeasy Plus Mini Kit (Qiagen). 500 ng of RNA was used for cDNA synthesis with SuperScript III first-strand synthesis system for RT-PCR (Invitrogen) and both random hexamers and oligo(dT)20 primers. RT-PCR was performed using TaqMan™ Fast Advanced Master Mix (Applied Biosystems). Reactions were analyzed upon a QuantStudio 3 Real-Time PCR machine using the following cycle conditions: 50° C. for 2 minutes, 95° C. for 2 minutes, followed by 40 cycles at 95° C. for 15 seconds, 60° C. for 1 minute, Results were normalized against GAPDH expression."}, "SRC [6]": {"test_system": "SRC", "experiment": "RT-PCR of SRC mRNA in patient biopsy-derived primary myotubes", "format": "cell-based, human", "settings": "10 nM-1 μM, 2.5 days, vs vehicle", "protocol": "as §4"}, "PRKDC [7]": {"test_system": "PRKDC", "experiment": "Immunofluorescence of nuclear phosphorylated PRKDC^2609 in primary myocytes", "format": "cell-based, human", "settings": "100 nM or 500 nM, 1 hour", "protocol": "(§5) Patient biopsy-derived primary myoblasts were seeded to a collagen-I coated plate in primary myoblast medium. Medium was changed every other day until cells reached 80% confluence followed by a switch to primary myotube medium. […] PRKDC (phosphorylated PRKDC^2609), active SRC (phosphorylated SRC^416), and nuclei."}, "SRC [8]": {"test_system": "SRC", "experiment": "Immunofluorescence of nuclear phosphorylated SRC^416 in primary myocytes", "format": "cell-based, human", "settings": "100 nM or 500 nM, 1 hour", "protocol": "as §5"}}, "note": "Several values for one entry are separate records, joined by “and”; a condition that tells them apart may be missing. Equal entries are not always repeated."}
{"compound": "CNC(=O)c1cc(Oc2ccc(NC(=O)Nc3cc(C(C)(C)C)nn3-c3ccc4ncccc4c3)c(F)c2)ccn1", "note": "[GBC0905, Rebastinib]", "values": [{"measurement": "Quantitation % of DUX4 reduction @the lowest significant [C]", "setting": "DUX4 [1]", "result": "66.39% and 51.75% and 79.76% and 82.94%"}, {"measurement": "DUX4 expression, dose curve", "setting": "DUX4 [2]; 17MB026 primary myotubes, 10-point dose curve 2 nM-5 μM, 2.5 days", "result": "dose-dependent decrease of DUX4 expression"}, {"measurement": "IC50", "setting": "DUX4 [2]; Homo sapiens, Myotube, 17MB026 primary FSHD patient myotubes, read-out: IC50 value, DUX4-suppressive effect", "result": "~100", "unit": "nM"}, {"measurement": "Myosin Heavy Chain and nuclei count", "setting": "[3]", "result": "without reducing Myosin Heavy Chain or nuclei count"}, {"measurement": "FSHD cell death measured by retained % cell confluence", "setting": "[4]", "result": "dose-dependent rescue of FSHD cell death"}, {"measurement": "expression of DUX4-activated genes", "setting": "DUX4 target genes", "result": "dose-dependent decrease of 11 DUX4-activated genes"}, {"measurement": "expression of characteristic myotube genes", "setting": "myotube marker genes", "result": "does not decrease expression of queried characteristic myotube genes"}, {"measurement": "expression levels of PRKDC (mRNA)", "setting": "PRKDC [5]", "result": "No significant difference"}, {"measurement": "expression levels of SRC (mRNA)", "setting": "SRC [6]", "result": "No significant difference"}, {"measurement": "intensity distribution of nuclear phosphorylated PRKDC^2609 (kinase activity)", "setting": "PRKDC [7]", "result": "significant shift towards lower intensity levels"}, {"measurement": "intensity distribution of nuclear phosphorylated SRC^416 (kinase activity)", "setting": "SRC [8]", "result": "significant shift towards lower intensity levels"}]}
